Numbers after ± are expanded uncertainties.
Test: xn = mol fraction of the nth substance listed
Details: Liquid, Vibrating tube method

CCCCCCCCCC [decane] + CCCCCCC
Details	mass density [kg/m3]
323.15 K, 7000 kPa, x2 = 0.0531	711.49 ± 0.44
323.15 K, 7000 kPa, x2 = 0.2594	703.89 ± 0.44
323.15 K, 8000 kPa, x2 = 0.0531	712.35 ± 0.44
323.15 K, 8000 kPa, x2 = 0.2594	704.79 ± 0.45
323.15 K, 9000 kPa, x2 = 0.0531	713.2 ± 0.45
323.15 K, 9000 kPa, x2 = 0.2594	705.68 ± 0.45
323.15 K, 10000 kPa, x2 = 0.0531	714.07 ± 0.45
323.15 K, 10000 kPa, x2 = 0.2594	706.56 ± 0.46
323.15 K, 10990 kPa, x2 = 0.0531	714.9 ± 0.46
323.15 K, 10990 kPa, x2 = 0.2594	707.43 ± 0.46
323.15 K, 12000 kPa, x2 = 0.0531	715.73 ± 0.46
323.15 K, 12000 kPa, x2 = 0.2594	708.29 ± 0.47
323.15 K, 13000 kPa, x2 = 0.0531	716.54 ± 0.47
323.15 K, 13000 kPa, x2 = 0.2594	709.14 ± 0.47
323.15 K, 14000 kPa, x2 = 0.0531	717.35 ± 0.47
323.15 K, 14000 kPa, x2 = 0.2594	709.98 ± 0.48
323.15 K, 15000 kPa, x2 = 0.0531	718.14 ± 0.48
323.15 K, 15000 kPa, x2 = 0.2594	710.81 ± 0.49
323.15 K, 16000 kPa, x2 = 0.0531	718.92 ± 0.48
323.15 K, 16000 kPa, x2 = 0.2594	711.62 ± 0.49
323.15 K, 17000 kPa, x2 = 0.0531	719.7 ± 0.49
323.15 K, 17000 kPa, x2 = 0.2594	712.43 ± 0.5
323.15 K, 18000 kPa, x2 = 0.0531	720.46 ± 0.5
323.15 K, 18000 kPa, x2 = 0.2594	713.25 ± 0.5
323.15 K, 19000 kPa, x2 = 0.0531	721.21 ± 0.5
323.15 K, 19000 kPa, x2 = 0.2594	714.01 ± 0.51
323.15 K, 20000 kPa, x2 = 0.0531	721.96 ± 0.51
323.15 K, 20000 kPa, x2 = 0.2594	714.78 ± 0.52
323.15 K, 21000 kPa, x2 = 0.0531	722.7 ± 0.51
323.15 K, 21000 kPa, x2 = 0.2594	715.55 ± 0.52
323.15 K, 22000 kPa, x2 = 0.0531	723.41 ± 0.52
323.15 K, 22000 kPa, x2 = 0.2594	716.3 ± 0.53
323.15 K, 23000 kPa, x2 = 0.0531	724.12 ± 0.53
323.15 K, 23000 kPa, x2 = 0.2594	716.98 ± 0.53
323.15 K, 24000 kPa, x2 = 0.0531	724.82 ± 0.53
323.15 K, 24000 kPa, x2 = 0.2594	717.65 ± 0.54
323.15 K, 25000 kPa, x2 = 0.0531	725.51 ± 0.54
323.15 K, 25000 kPa, x2 = 0.2594	718.3 ± 0.55
323.16 K, 1000 kPa, x2 = 0.777	673.59 ± 0.43
323.16 K, 2000 kPa, x2 = 0.777	674.58 ± 0.43
323.16 K, 3000 kPa, x2 = 0.777	675.56 ± 0.44
323.16 K, 4000 kPa, x2 = 0.777	676.57 ± 0.44
323.16 K, 5000 kPa, x2 = 0.777	677.56 ± 0.45
323.16 K, 6000 kPa, x2 = 0.777	678.57 ± 0.45
323.16 K, 7000 kPa, x2 = 0.777	679.58 ± 0.46
323.16 K, 8000 kPa, x2 = 0.777	680.57 ± 0.46
323.16 K, 9000 kPa, x2 = 0.777	681.56 ± 0.47
323.16 K, 10000 kPa, x2 = 0.777	682.54 ± 0.48
323.16 K, 10990 kPa, x2 = 0.777	683.5 ± 0.48
323.16 K, 12000 kPa, x2 = 0.777	684.45 ± 0.49
323.16 K, 13000 kPa, x2 = 0.777	685.39 ± 0.5
323.16 K, 14000 kPa, x2 = 0.777	686.31 ± 0.5
323.16 K, 15000 kPa, x2 = 0.777	687.21 ± 0.51
323.16 K, 16000 kPa, x2 = 0.777	688.1 ± 0.52
323.16 K, 17000 kPa, x2 = 0.777	688.99 ± 0.52
323.16 K, 18000 kPa, x2 = 0.777	689.87 ± 0.53
323.16 K, 19000 kPa, x2 = 0.777	690.73 ± 0.54
323.16 K, 20000 kPa, x2 = 0.777	691.58 ± 0.54
323.16 K, 21000 kPa, x2 = 0.777	692.41 ± 0.55
323.16 K, 22000 kPa, x2 = 0.777	693.22 ± 0.56
323.16 K, 23000 kPa, x2 = 0.777	693.96 ± 0.57
323.16 K, 24000 kPa, x2 = 0.777	694.7 ± 0.57
323.16 K, 25000 kPa, x2 = 0.777	695.42 ± 0.58
333.11 K, 1000 kPa, x2 = 0.5219	679.05 ± 0.42
333.11 K, 2000 kPa, x2 = 0.5219	680.06 ± 0.43
333.11 K, 3000 kPa, x2 = 0.5219	681.02 ± 0.43
333.11 K, 4000 kPa, x2 = 0.5219	682.02 ± 0.44
333.11 K, 5000 kPa, x2 = 0.5219	683.02 ± 0.44
333.11 K, 6000 kPa, x2 = 0.5219	684.02 ± 0.45
333.11 K, 7000 kPa, x2 = 0.5219	685.02 ± 0.45
333.11 K, 8000 kPa, x2 = 0.5219	686.03 ± 0.46
333.11 K, 9000 kPa, x2 = 0.5219	687.04 ± 0.46
333.11 K, 10000 kPa, x2 = 0.5219	688.03 ± 0.47
333.11 K, 10990 kPa, x2 = 0.5219	689.01 ± 0.48
333.11 K, 12000 kPa, x2 = 0.5219	689.97 ± 0.48
333.11 K, 13000 kPa, x2 = 0.5219	690.92 ± 0.49
333.11 K, 14000 kPa, x2 = 0.5219	691.85 ± 0.49
333.11 K, 15000 kPa, x2 = 0.5219	692.77 ± 0.5
333.11 K, 16000 kPa, x2 = 0.5219	693.68 ± 0.51
333.11 K, 17000 kPa, x2 = 0.5219	694.58 ± 0.51
333.11 K, 18000 kPa, x2 = 0.5219	695.49 ± 0.52
333.11 K, 19000 kPa, x2 = 0.5219	696.33 ± 0.53
333.11 K, 20000 kPa, x2 = 0.5219	697.15 ± 0.53
333.11 K, 21000 kPa, x2 = 0.5219	697.97 ± 0.54
333.11 K, 22000 kPa, x2 = 0.5219	698.76 ± 0.55
333.11 K, 23000 kPa, x2 = 0.5219	699.54 ± 0.55
333.11 K, 24000 kPa, x2 = 0.5219	700.3 ± 0.56
333.11 K, 25000 kPa, x2 = 0.5219	701.04 ± 0.57
333.12 K, 1000 kPa, x2 = 0.0531	698.2 ± 0.41
333.12 K, 1000 kPa, x2 = 0.777	665.15 ± 0.43
333.12 K, 2000 kPa, x2 = 0.0531	699.22 ± 0.42
333.12 K, 2000 kPa, x2 = 0.777	666.23 ± 0.43
333.12 K, 3000 kPa, x2 = 0.0531	700.22 ± 0.42
333.12 K, 3000 kPa, x2 = 0.777	667.33 ± 0.44

Reference: the NIST ThermoML archive (doi:10.1016/j.jct.2011.08.016)
